# From EP0330017A2, “Use of thiazoles for increasing animal performance” (BOEHRINGER INGELHEIM VETMEDICA GMBH, priority 1988, dated 1989)
# Key:
# [1] = Performance promotion in lambs, 33-day feeding trial (weight gain, feed consumption); format: in vivo, Lämmern; details: 33-day trial
# Source text: (§1) Die leistungsfördernde Wirkung der vorstehend erwähnten Thiazole wurde beispielsweise an der Verbindung N-[2-(4-Carboxymethoxyphenyl)-1-methylethenyl]-2-(2-trifluormethyl-thiazol-4-yl)morpholin wie folgt geprüft:
# 1.) 2 Gruppen von 7 Lämmern, wobei jedes Tier einzeln gehalten wurde, erhielten identisches Futter und Wasser ad libitum. Die eine Gruppe erhielt zusätzlich 8 ppm der vorstehend erwähnten Verbindung. Während der 33-tägigen Versuchsperiode wurden Gewichtszunahme und Futterverbrauch gegenüber der Kontrollgruppe bestimmt.
# [2] = Performance promotion in pigs, 33-day feeding trial (weight gain, feed consumption, carcass quality); format: in vivo, Schweinen; details: 8 ppm test compound in feed, 33-day trial, 10 pigs
# Source text: as §1
# 3.) 2 Gruppen von 10 Schweinen, wobei jedes Tier einzeln gefüttert wurde, erhielten identisches Futter und Wasser ad libitum. Die eine Gruppe erhielt zusätzlich 8 ppm der vorstehend erwähnten Verbindung. Während der 33-tägigen Versuchsperiode wurden Gewichtszunahme, Futterverbrauch der Schlachtkörperqualität gegenüber der Kontrollgruppe bestimmt.
# [3] = Performance promotion in lambs, 42-day feeding trial (weight gain, carcass quality); format: in vivo, Lämmern; details: 42-day trial
# Source text: as §1
# 2.) 2 Gruppen von 12 Lämmern erhielten identisches Futter und Wasser ad libitum. Die eine Gruppe erhielt zusätzlich 8 ppm der vorstehend erwähnten Verbindung. Während der 42-tä-gigen Versuchsperiode wurden Gewichtszunahme und Parameter der Schlachtkörperqualität gegenüber der Kontrolle bestimmt.
# [4] = 8 ppm test compound in feed, 7 lambs
# [5] = 8 ppm test compound in feed, 12 lambs
smiles,measurement,setting,value
CC(Cc1ccc(OCC(=O)O)cc1)N1CCOC(c2csc(C(F)(F)F)n2)C1 (centres unmarked) [Testverbindung],Endgewicht,[1]; [4],"43,9 kg"
same,Futteraufnahme,[1]; [4],"1598,0 g/Tag"
same,Futterverwertung (kg Zunahme/kg Futter),[1]; [4],"0,161 kg Zunahme/kg Futter"
same,Gewichtszunahme,[1]; [4],"258,0 g/Tag"
same,"Futteraufnahme, Abweichung zur Kontrolle","[1]; 8 ppm vs 0 ppm control, lambs","+4,4%"
same,"Futterverwertung (kg Zunahme/kg Futter), Abweichung zur Kontrolle","[1]; 8 ppm vs 0 ppm control, lambs","+50,5%"
same,"Gewichtszunahme, Abweichung zur Kontrolle","[1]; 8 ppm vs 0 ppm control, lambs","+57,3%"
same,Ausschlachtung,[2],"77,2%"
same,Endgewicht,[2],"97,6 kg"
same,Futterverwertung (kg Futter/kg Zunahme),[2],"3,17 kg Futter/kg Zunahme"
same,Gewichte verschiedener Teilstücke: Rippe,[2],"7,25 kg"
same,Gewichte verschiedener Teilstücke: Schinken,[2],"7,46 kg"
same,Gewichte verschiedener Teilstücke: Schulter,[2],"9,48 kg"
same,Gewichtszunahme,[2],"754,0 g/Tag"
same,Rückenmuskelfläche,[2],"32,3 cm²"
same,Endgewicht,[3]; [5],"46,6 kg"
same,Gewicht des musculus longissimus dorsi,[3]; [5],"324,0 g"
same,Gewichtszunahme,[3]; [5],"320,0 g/Tag"
same,Rückenfettdicke,[3]; [5],"1,78 mm"
same,Schlachtkörperzusammensetzung: Fett,[3]; [5],"16,1%"
same,Schlachtkörperzusammensetzung: Fleisch,[3]; [5],"69,1%"
same,Schlachtkörperzusammensetzung: Knochen,[3]; [5],"14,8%"
same,"Gewicht des musculus longissimus dorsi, Abweichung zur Kontrolle","[3]; 8 ppm vs 0 ppm control, lambs","+6,9%"
same,"Schlachtkörperzusammensetzung: Fett, Abweichung zur Kontrolle","[3]; 8 ppm vs 0 ppm control, lambs","-6,9%"
same,"Schlachtkörperzusammensetzung: Fleisch, Abweichung zur Kontrolle","[3]; 8 ppm vs 0 ppm control, lambs","+1,2%"
same,"Schlachtkörperzusammensetzung: Knochen, Abweichung zur Kontrolle","[3]; 8 ppm vs 0 ppm control, lambs","+2,8%"
